Experimental data: patent US20250230193A1, “CYCLIC COMPOUND HAVING SELECTIVE KRAS INHIBITORY EFFECT ON HRAS AND NRAS” (CHUGAI SEIYAKU KABUSHIKI KAISHA, priority 2022, published 2025)

How the values were obtained:
[1] = biological target: GDP-bound NRAS wild-type protein (Homo sapiens, UniProt P01111); assay: Binding to NRAS by surface plasmon resonance (SPR), Single Cycle Kinetics; settings: KD ratio, GDP-bound NRAS wild-type vs GDP-bound KRAS wild-type, SPR
[2] = biological target: GDP-bound HRAS wild-type protein (Homo sapiens, UniProt P01112); assay: Binding to HRAS by surface plasmon resonance (SPR), Single Cycle Kinetics; settings: KD ratio, GDP-bound HRAS wild-type vs GDP-bound KRAS wild-type, SPR
Chain of GDP-bound HRAS wild-type protein (P01112 whole entry): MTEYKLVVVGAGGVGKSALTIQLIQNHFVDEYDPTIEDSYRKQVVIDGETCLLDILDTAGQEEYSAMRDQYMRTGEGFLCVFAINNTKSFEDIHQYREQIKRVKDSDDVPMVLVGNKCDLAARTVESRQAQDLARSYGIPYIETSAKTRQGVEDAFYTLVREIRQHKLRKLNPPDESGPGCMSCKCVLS

Chain of GDP-bound NRAS wild-type protein (P01111 whole entry): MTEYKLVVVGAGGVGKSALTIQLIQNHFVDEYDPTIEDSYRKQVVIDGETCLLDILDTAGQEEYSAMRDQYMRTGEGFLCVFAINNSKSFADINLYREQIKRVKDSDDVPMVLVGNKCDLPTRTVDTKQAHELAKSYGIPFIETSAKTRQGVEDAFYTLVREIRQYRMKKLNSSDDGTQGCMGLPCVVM

SMILES: CC[C@H](C)[C@@H]1NC(=O)[C@H](CC2CC2)N(C)C(=O)C[C@@H](C(=O)N(C)C)N(C)C(=O)[C@H](C2CCCC2)N(C)C(=O)C2(CC(C)(C)C2)NC(=O)[C@@H]2C[C@@H](C)CN2C(=O)[C@H](CCc2ccc(C(F)(F)F)c(OC)c2)NC(=O)CN(C)C(=O)[C@H](Cc2ccc(C)cc2)N2CC/C=C\C[C@@H](C2=O)N(C)C(=O)CN(C)C1=O [PP1901]
- NRAS/KRAS (ratio of KD value for NRAS to KD value for KRAS) [1]: A (a compound having 10 or more and less than 20 is denoted as A)
- HRAS/KRAS (ratio of KD value for HRAS to KD value for KRAS) [2]: B (a compound having 3 or more and less than 10 is denoted as B)

SMILES: CC[C@H](C)[C@@H]1NC(=O)[C@H](CC2CC2)N(C)C(=O)C[C@@H](C(=O)N(C)CC)N(C)C(=O)[C@H](C2CCCC2)N(C)C(=O)C2(CC(C)(C)C2)NC(=O)[C@@H]2C[C@@H](C)CN2C(=O)[C@H](CCc2ccc(C(F)(F)F)c(OC)c2)NC(=O)CN(C)C(=O)[C@H](Cc2ccc(C)cc2)N2CC/C=C\C[C@@H](C2=O)N(C)C(=O)CN(C)C1=O [PP1902]
- NRAS/KRAS (ratio of KD value for NRAS to KD value for KRAS) [1]: A (a compound having 10 or more and less than 20 is denoted as A)
- HRAS/KRAS (ratio of KD value for HRAS to KD value for KRAS) [2]: A (a compound having 10 or more and less than 20 is denoted as A)

SMILES: CCO[C@@H]1C[C@H]2C(=O)NC3(CC(C)(C)C3)C(=O)N(C)[C@@H](C3CCCC3)C(=O)N(C)[C@H](C(=O)N(C)C)CC(=O)N(C)[C@@H](CC3CC3)C(=O)N[C@@H]([C@@H](C)CC)C(=O)N(C)CC(=O)N(C)[C@H]3C/C=C\CCN(C3=O)[C@@H](Cc3ccc(C)cc3)C(=O)N(C)CC(=O)N[C@@H](CCc3ccc(C(F)(F)F)c(OC)c3)C(=O)N2C1 [PP1903]
- NRAS/KRAS (ratio of KD value for NRAS to KD value for KRAS) [1]: A (a compound having 10 or more and less than 20 is denoted as A)
- HRAS/KRAS (ratio of KD value for HRAS to KD value for KRAS) [2]: B (a compound having 3 or more and less than 10 is denoted as B)

SMILES: CC[C@H](C)[C@@H]1NC(=O)[C@H](CC(C)C)N(C)C(=O)C[C@@H](C(=O)N(C)CC)N(C)C(=O)[C@H](C2CCCC2)N(C)C(=O)C2(CCC2)NC(=O)[C@@H]2C[C@H](C)CN2C(=O)[C@H](CCc2ccc(C(F)(F)F)c(OC)c2)NC(=O)CN(C)C(=O)[C@H](Cc2ccc(C)cc2)N2CC/C=C\C[C@@H](C2=O)N(C)C(=O)CN(C)C1=O [PP1904]
- NRAS/KRAS (ratio of KD value for NRAS to KD value for KRAS) [1]: A (a compound having 10 or more and less than 20 is denoted as A)
- HRAS/KRAS (ratio of KD value for HRAS to KD value for KRAS) [2]: B (a compound having 3 or more and less than 10 is denoted as B)

SMILES: CC[C@H](C)[C@@H]1NC(=O)[C@H](CC(C)C)N(C)C(=O)C[C@@H](C(=O)N(C)CC)N(C)C(=O)[C@H](C2CCCC2)N(C)C(=O)C2(CC(C)(C)C2)NC(=O)[C@@H]2C[C@H](C)CN2C(=O)[C@H](CCc2ccc(C(F)(F)F)c(OC)c2)NC(=O)CN(C)C(=O)[C@H](Cc2ccc(C)cc2)N2CC/C=C\C[C@@H](C2=O)N(C)C(=O)CN(C)C1=O [PP1906]
- NRAS/KRAS (ratio of KD value for NRAS to KD value for KRAS) [1]: A (a compound having 10 or more and less than 20 is denoted as A)
- HRAS/KRAS (ratio of KD value for HRAS to KD value for KRAS) [2]: A (a compound having 10 or more and less than 20 is denoted as A)

SMILES: CC[C@H](C)[C@@H]1NC(=O)[C@H](CC(C)C)N(C)C(=O)C[C@@H](C(=O)N(C)CC)N(C)C(=O)[C@H](C2CCCC2)N(C)C(=O)C2(CCC2)NC(=O)[C@@H]2C[C@@H](C)CN2C(=O)[C@H](CCc2ccc(C(F)(F)F)c(OC)c2)NC(=O)CN(C)C(=O)[C@H](Cc2ccc(C)cc2)N2CC/C=C\C[C@@H](C2=O)N(C)C(=O)CN(C)C1=O [PP1907]
- NRAS/KRAS (ratio of KD value for NRAS to KD value for KRAS) [1]: AA (a compound having 20 or more is denoted as AA)
- HRAS/KRAS (ratio of KD value for HRAS to KD value for KRAS) [2]: A (a compound having 10 or more and less than 20 is denoted as A)

SMILES: CCO[C@@H]1C[C@H]2C(=O)NC3(CCC3)C(=O)N(C)[C@@H](C3CCCC3)C(=O)N(C)[C@H](C(=O)N(C)CC)CC(=O)N(C)[C@@H](CC(C)C)C(=O)N[C@@H]([C@@H](C)CC)C(=O)N(C)CC(=O)N(C)[C@H]3C/C=C\CCN(C3=O)[C@@H](Cc3ccc(C)cc3)C(=O)N(C)CC(=O)N[C@@H](CCc3ccc(C(F)(F)F)c(OC)c3)C(=O)N2C1 [PP1910]
- NRAS/KRAS (ratio of KD value for NRAS to KD value for KRAS) [1]: A (a compound having 10 or more and less than 20 is denoted as A)
- HRAS/KRAS (ratio of KD value for HRAS to KD value for KRAS) [2]: B (a compound having 3 or more and less than 10 is denoted as B)
